The record followed here is article PMC6476888, “Design and synthesis of anticancer 1-hydroxynaphthalene-2-carboxanilides with a p53 independent mechanism of action” (Scientific Reports, 2019).

Common to all, as to format: cell-based, human
For assay [1], the system named is HCT116 cells. As to the kind of experiment: AO/EB staining apoptosis assay. The conditions noted are these: HCT116 p53^+/+ and p53^−/−, IC50 concentration. On the procedure:
Three compounds with a distinct activity were selected for further tests. […] The apoptosis of the cells that were treated with the active compounds was confirmed using the Acridine Orange (AO)/Ethidium Bromide (EB) staining test[70] (Fig. 5).
The dual acridine orange/ethidium bromide (AO/EB) staining method was used for the morphological analysis of apoptosis. The cells were seeded on coverslips at a density of 8·10^5 cells/slide and incubated at 37 °C for 48 h. Then, the medium was removed and solutions of 5 s, 5 u, 7 f and DOX at the IC50 concentration were added. After 24 h, the cells were washed with PBS, and then the cells were incubated in a staining solution (100 μg/mL AO and 100 μg/mL EB in PBS) (Sigma-Aldrich, St. Louis, MO, USA) for 3–4 min. After staining, the coverslips were washed with PBS and fixed with 3.7% paraformaldehyde for 15 min. Observations and photography were performed with a Nikon Eclipse Ni-U fluorescent microscope equipped with the sets of filters for AO and EB (excitation filter 450–490, barrier filter BA520).

The test system of assay [2] is HCT116^−/−. As to the kind of experiment: Antiproliferative assay (MTS, 72 h) on HCT116 with p53 deletion. The conditions noted are these: for IC50: Homo sapiens, HCT-116, MTS, 72 h incubation.
In assay [3] the test system is HCT116^+/+. In words: Antiproliferative assay (MTS, 72 h) on HCT116 wild type. The conditions noted are these: for IC50: Homo sapiens, HCT-116.
Assay [4] has as its system p53/p21 system in the HCT116 cells. In words: Western blot of p53/p21 activation. On the procedure:
Further exploration of the cell death model was performed by a western blot analysis of protein activation in response to incubation with the tested compound (Figs 6, 7). […] The proapoptotic activation of the p53/p21 system was noticeable after the first 12 hours and then became stronger after 24 h. This effect was not observed in the case of the p53 null cells, which were unable to synthesize this protein.
The HCT116 cells were seeded in 3-cm Petri dishes (Nunc) at a density of 0.5·10^6 cells/well and incubated overnight. […] The cells were harvested by trypsinization and washed with cold PBS. Next, the cells were centrifuged and suspended in an RIPA buffer (Thermo-Fisher Scientific) containing Halt Protease Inhibitor Cocktail (Thermo-Fisher Scientific), Halt Phosphatase Inhibitor Cocktail (Thermo-Fisher Scientific) along with 0.5 M EDTA and lysed for 20 min on ice. Then, the lysates were sonicated, centrifuged at 10,000 rpm for 10 min at 4 °C and the supernatants were collected for further analysis. The protein concentration was determined using a Micro BCA™ Protein Assay Kit (Thermo-Fisher Scientific, Waltham, MA, USA c) according to the manufacturer’s instructions. Equal amounts of the proteins (20 μg) were electrophoresed on SDS-Page gels and transferred onto nitrocellulose membranes. The membranes were blocked in 5% non-fat milk prepared in PBS containing 0.1% Tween-20 (TPBS) for 1 h. After blocking, the membranes were incubated with specific primary antibodies: p21^Waf1/Cip1, p53, cytochrome c, caspase-8, caspase-9, AIF, PARP, GAPDH and β-Actin overnight at 4 °C, and then washed and incubated with horseradish peroxidase (HRP)-conjugated secondary antibodies for 1 h at room temperature. All of the antibodies were purchased from CellSignaling (Danvers, MA, USA) and were diluted 1:1000 in 5% milk in TPBS. Finally, the membranes were washed and incubated with a SuperSignal™ West Pico Chemiluminescent Substrate (Thermo-Fisher Scientific). The chemiluminescence signals were captured using a ChemiDoc™ XRS+ System (Bio-Rad Laboratories, Hercules, CA, USA). The experiments were performed at least three times. Densitometric analysis was performed using ImageJ 1.41 software (Wayne Rasband, National Institutes of Health, USA).
A general note: Immunoblotting shows a protein as a band on a membrane.

Setting [5] is: MTS, 72 h incubation, read-out: Activity IC50 HCT116^+/+.
Setting [6] is: p53 null cells, after the first 12 hours.

Like-named read-outs stand apart in the source and are kept apart here.

Take `O=C(Nc1ccc(F)c(Cl)c1)c1ccc2ccccc2c1O` [5s]: the “apoptosis (AO/EB staining)” value in assay [1] was “early and late apoptotic cells”. Also, in assay [2], the “selectivity towards the p53 null cells (HCT116 p53^−/− vs wild type)” value is given as “more than eight times more toxic” and the IC50 was found to be 830 ± 310 nM. In assay [3] (setting [5]), the IC50 is 6870 ± 2480 nM. Also, the p21 protein amount result in assay [4] (setting [6]) is “small, insignificant increase”.

In the case of `O=C(Nc1cc(C(F)(F)F)cc(C(F)(F)F)c1Cl)c1ccc2ccccc2c1O` [5u], the “apoptosis (AO/EB staining)” value in assay [1] is “early and late apoptotic cells”. Also, the figures for the IC50 in assay [2] and in assay [3] (setting [5]) were 2720 ± 630 nM and 720 ± 280 nM, respectively. The “selectivity for the wild type over p53 null cells” value in assay [3] is listed as “roughly four times more active against the wild type”. The p21 protein amount result in assay [4] (setting [6]) is on record as “small, insignificant increase”.

In the case of `O=C(Nc1cc(C(F)(F)F)cc(C(F)(F)F)c1)c1ccc2ccccc2c1O` [7f], the “apoptosis (AO/EB staining)” value in assay [1] was “early and late apoptotic cells”. In addition, the IC50 in assay [2] was 350 ± 80 nM; in assay [3] (setting [5]), 460 ± 50 nM; in assay [3] (submicromolar activity level, read-out: IC50 for the HCT116 wild type), 464 nM. The p21 protein amount result in assay [4] (either of the lines tested) was “did not increase p21”.
